Measurements published in US20250340661A1, “ANTI CD40 ANTIBODY, ANTIGEN BINDING FRAGMENT AND MEDICAL USE THEREOF” (Jiangsu Hengrui Pharmaceuticals Co., Ltd., priority 2021, published 2025).
Read-outs that look alike come from different tables or passages of the source.

What was measured:
CD40 [1] = target: T1, CD40 (Homo sapiens, UniProt P25942); assay: FACS binding of human-rabbit chimeric anti-CD40 antibodies to Raji cells
Description: Raji cells are of a tumor cell line that overexpresses human CD40. 2E5 Raji cells were inoculated onto a 96-well plate. 100 μL of a test antibody was added, with the highest final concentration of 100 nM. The antibody was 5-fold diluted to 8 concentrations. The plate was incubated at 4° C. for 1 h. The plate was washed once with wash buffer, and an AF647-conjugated anti-human IgG antibody (Jackson Immunoresearch Laborotories, Cat. #205-609-088) was added at a dilution ratio of 1:500. The plate was incubated at 4° C. for 30 min. The plate was washed once with wash buffer, and fluorescence intensity was measured using a flow cytometer. The binding EC50 values of the anti-CD40 antibodies for CD40 were calculated. The anti-CD40 antagonistic antibody CFZ533 (i.e., iscalimab, Nova) was used as a positive control, and the heavy and light chain variable region sequences were derived from sequence 5 and sequence 2 of U.S. Pat. No. 8,277,810B, respectively.

[2] = target: T2, Raji cell surface human CD40 (Homo sapiens, UniProt P25942); assay: FACS binding of humanized anti-CD40 antibodies to Raji cells
T2 construct: Raji cells highly express human CD40 on the cell surface; endogenous in cells; host or cells: Raji cells (Burkitt lymphoma line)
Description: Raji cells highly express human CD40 on the cell surface and thus can be used to detect the binding of CD40 antagonistic antibodies to the cell surface human CD40.
Raji cells were plated at 1.5E5/well, and various concentrations of CD40 antagonistic antibodies were added. The plate was incubated at 4° C. for 1 h. After two washes with FACS buffer (PBS+2% FBS), a secondary antibody (Alexa Flour488 conjugated anti-human IgG (H+L) antibody) was added, and the plate was incubated at 4° C. for 0.5 h.
After two washes with FACS buffer, the fluorescence intensity on the cell surface was measured by flow cytometry (BD FACS Celesta).

[3] = tested on: human CD40 transgenic mice; assay: Mouse T cell-dependent humoral immune response (TDAR) model; assay type: in vivo; settings: 0.3 mpk BIW ip (IgG1 control 1 mg/kg per Table 15); serum ELISA
Description: On day 0 of the experiment, one of the mice in each group was subjected to blood collection followed by intraperitoneal injection. On day 1, each mouse was intraperitoneally injected with 50 μg of KLH (KLH:complete Freund's adjuvant (CFA)=1:1 emulsified immune complex) for immunization. On day 15 of the experiment, each mouse was intraperitoneally injected with 50 μg of KLH (KLH:incomplete Freund's adjuvant (IFA)=1:1 emulsified immune complex) for a second immunization. Each group was intraperitoneally injected twice a week, and blood samples of about 150 μL were collected from the orbital venous plexus on days 7, 14, 21, and 28. Whole blood was left to stand at room temperature for 1-4 h and centrifuged at 7000 rpm at 4° C. for 10 min to separate serum, and the serum was stored at −80° C. before use.
Mouse serum was separated weekly and assayed by ELISA for the anti-KLH specific IgG level.

[4] = tested on: human CD40 transgenic mice; assay: Mouse skin graft rejection model; assay type: in vivo
Description: Male Balb/c mice, 6 weeks old, were purchased from the Laboratory Animal Management Department, Shanghai Institute of Planned Parenthood Research. Housing environment: SPF; certification number: 20180006023393.
On day −2 of the experiment, the mice were intraperitoneally injected with tacrolimus FK506 or CD40 antagonistic antibodies. On day 0 of the experiment, donor Balb/c mice and C57BL6/J mice were anesthetized with 4% chloral hydrate. The tails of the donor mice were removed, and full circles of skin, 1 cm in length, were isolated from the tails. The hair on the acceptor mice's back was removed, and an incision was made along the skin layer. An equal area of skin was removed while preserving the back fat and connective tissue. The donor skin was placed on the acceptor mice's incision site, and the incision was closed with glue. The mice were then placed back in cages to recover.
The mice were dosed according to the administration regimens in Table 17. After 7 days of recovery, the mouse skin survival was observed daily and rejection scores were recorded.

[5] = PK assay in human CD40 transgenic mice; assay type: in vivo, mouse; settings: hCD40 transgenic mice, 10 mg/kg intraperitoneal, plasma
Description: The plate was washed three times with wash buffer.

CD40 [6] = target: T1, CD40; assay: HEK-Blue CD40L reporter gene cell activity of humanized anti-CD40 antibodies; assay type: cell-based; design: host or cells: HEK-Blue CD40L cells; settings: read-out: IC50 inhibition of CD40 reporter gene cell activity
Description: HEK-Blue CD40L cells were purchased from Invivogen (Cat. #hkb-cd40). The cells were stably transfected with the human CD40 gene and the NF-kB-mediated SEAP genome. The activation level of the CD40 signaling pathway can be characterized by measuring the amount of secreted SEAP in the supernatant using QUANTI-Blue, the substrate of SEAP. In the assays, the inhibitory effects of the CD40 antagonistic antibodies on the CD40L-induced HEK-Blue CD40L cell activation were measured, and the in vitro cell activity of the CD40 antagonistic antibodies was assessed based on IC50. HEK-Blue CD40L cells were cultured in a DMEM medium containing 10% FBS, 100 μg/mL Normocin, 100 μg/mL Zeocin and 30 μg/mL Blasticidin, with 2-3 passages a week. HEK-Blue CD40L cells were plated at 5E4/well into a 96-well cell culture plate (the medium was DMEM, 10% FBS, 100 μg/mL Normocin) and incubated overnight. […] CD40L-his (R&D, 2706-CL-025) and anti-His antibody (R&D, MAB050-500) were added, and the plate was incubated overnight. After cell centrifugation, 20 μL of the cell supernatant was transferred to a new 96-well white plate, and 180 μL of QUANTI-Blue substrate solution was added. The plate was incubated in the dark for 15 min. The absorbance at 620 nm was measured with an Envision microplate reader, and IC50 values were calculated and used to assess the in vitro cell activity of the CD40 antagonistic antibodies.

T1 sequence (P25942 21-277): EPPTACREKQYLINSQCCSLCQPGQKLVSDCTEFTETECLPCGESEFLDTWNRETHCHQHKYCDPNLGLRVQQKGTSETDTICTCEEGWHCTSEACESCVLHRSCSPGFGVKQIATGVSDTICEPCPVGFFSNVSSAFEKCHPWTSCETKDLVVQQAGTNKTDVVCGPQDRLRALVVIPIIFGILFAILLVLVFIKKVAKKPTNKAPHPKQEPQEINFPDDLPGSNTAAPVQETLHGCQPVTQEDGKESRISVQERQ
T2 sequence (P25942 21-277): as above

In the case of “CFZ533: anti-CD40 antagonistic antibody (iscalimab), positive control; variable regions from U.S. Pat. No. 8,277,810B [reference compound]”, the EC50 (CD40 [1]) is reported as 2.41 nM, the EC50 [2] is reported as 1.01 nM and the “anti-KLH specific IgG level, Day 7” value [3] is reported as 0.04 ± 0.01. The “anti-KLH specific IgG level, Day 14” value [3] was 30.9 ± 10.8, the “anti-KLH specific IgG level, Day 21” value [3] was 845 ± 423 and the “anti-KLH specific IgG level, Day 28” value [3] was 3043 ± 1600. The Skin graft score ([4]; 8 days, 3 mpk, scale 3 (no rejection) to 0) was 2.7, the Skin graft score ([4]; 8 days, 10 mpk, scale 3 to 0) was 2.9 and the Skin graft score ([4]; 10 days, 3 mpk, scale 3 to 0) was 2.1. For the same substance, the Skin graft score ([4]; 10 days, 10 mpk, scale 3 to 0) was 2.1, the Skin graft score ([4]; 15 days, 3 mpk, scale 3 to 0) was 0 and the Skin graft score ([4]; 15 days, 10 mpk, scale 3 to 0) was 0. For the same substance, the Skin graft score ([4]; 20 days, 3 mpk, scale 3 to 0) was 0, the Skin graft score ([4]; 20 days, 10 mpk, scale 3 to 0) was 0 and the “Skin graft survival rate (%)” value ([4]; Day 15, 3 mpk ip) was 0%. For the same substance, the “Skin graft survival rate (%)” value ([4]; Day 15, 10 mpk ip) was 0%, the “AUC(0-d 14)” value [5] was 12655 (h)*(mg/L) and the Cmax [5] was 75.95 µg/mL. It also gave a T½ [5] of 214.8 h, an IC50 (CD40 [6]; Assay 1) of 0.36 nM and an IC50 (CD40 [6]; Assay 2) of 0.35 nM.
